From US6441027B1, “Method of regulating the female reproductive system through angiogenesis inhibitors” (Children's Medical Center Corporation, priority 1996, dated 2002)

What was measured:
[1] = tested on: intersite endometrium; test: Factor VIII microvessel density of intersite endometrium on E6; type: in vivo, mouse
Experimental: To test this hypothesis, mice were treated with AGM-1470 on E1 and sacrificed at E6, a time point prior to placental formation. The uteri of the mice were examined by antibodies to Factor VIII and PCNA to determine if there was any difference in the degree of endometrial angiogenesis or the proliferative response of the decidua induced by trophoblast invasion. However, in the decidua there was a 50% decrease in the proliferation of stromal cells in the AGM-1470 treated mice as compared to control (PCNA staining/X630 field in control was 48%±3, n=4, versus 24%±5, n=4, P≦0.005 in AGM-1470 treated mice. See FIG. 4A and 4B). […]
To determine microvessel density, Carnoy's-fixed tissue sections were pretreated with 2 microgram/ml Proteinase K (Boehringer Mannheim, Mannheim, Germany) at 37° Celsius for 15 minutes before staining with a rabbit polyclonal antibody against mouse factor VIII (Dako, Carpinteria, Calif.). Positive staining was detected by incubating sequentially with a secondary antibody against rabbit conjugated to horseradish peroxidase (Dako) and diaminobenzidine tetrahydrochloride (DAB) (Dako) as a chromagen. […] Microvessel density was determined by light microscopy. Each count was expressed as the number of microvessels identified within a selected field. Ten fields per section were counted. […]

[2] = tested on: bFGF induced neovascularization; test: Mouse corneal micropocket model, bFGF pellet; type: in vivo; conditions: mouse cornea, n=10/group, p<0.001
Experimental: (§1) To confirm that angiogenesis was being inhibited, AGM-1470 was tested in vivo. A mouse corneal micropocket model was used which was recently developed to model tumor angiogenesis. Pellets of bFGF or VEGF were implanted in the mouse cornea resulting in aggressive neovascularization. AGM-1470 inhibited the amount of bFGF or VEGF induced neovascularization by 47% or 62% respectively (n=10/group p<0.001).

[3] = tested on: VEGF induced neovascularization; test: Mouse corneal micropocket model, VEGF pellet; type: in vivo; conditions: mouse cornea, n=10/group, p<0.001
Experimental: as §1

[4] = tested on: endometrium; test: Cycling mice, chronic treatment: examination of the uterus; type: in vivo, mouse
Experimental: (§2) Mice were randomized and received either AGM-1470 30 mg/kg s.c. or saline 0.1 ml s.c. every other day for 16 days (approximately four estrous cycles). On the last of four days of treatment mice were housed with male mice to see if successful mating and conception would occur. On day 16 mice were weighed and sacrificed by cervical dislocation. The ovaries were resected enbloc, fixed in Carnoy's fixative, and embedded in paraffin according to standard histologic techniques. Sections were cut at 6 microns and stained with hematoxylin and eosin.
To determine microvessel density, Carnoy's-fixed tissue sections were pretreated with 2 microgram/ml Proteinase K (Boehringer Mannheim, Mannheim, Germany) at 37° Celsius for 15 minutes before staining with a rabbit polyclonal antibody against mouse factor VIII (Dako, Carpinteria, Calif.). Positive staining was detected by incubating sequentially with a secondary antibody against rabbit conjugated to horseradish peroxidase (Dako) and diaminobenzidine tetrahydrochloride (DAB) (Dako) as a chromagen. Sections were counterstained with methyl green (Schmid & Co., Stuttgart, Germany) and mounted in Permount (Fisher, Fair Lawn, N.J.). Microvessel density was determined by light microscopy. Each count was expressed as the number of microvessels identified within a selected field. Ten fields per section were counted.
To determine the rate of cellular proliferation, staining for proliferating cell nuclear antigen (PCNA) was performed. Carnoy's-fixed sections were pretreated in target unmasking fluid (Signet Laboratories, Dedham, Mass.) for 10 minutes at 90° for antigen retrieval. Immunohistochemical staining was performed with an anti-PCNA murine monoclonal antibody (Signet). Positive staining was detected by using horse radish peroxidase-conjugated secondary (Dako) and tertiary (Dako) antibodies, and DAB as a chromagen. The PCNA labeling index was determined by counting the percentage of stained cells under light microscopy within selected 630× fields. A minimum of 1,000 cells were counted for each specimen.
For staining of apoptotic cells, Carnoy's-fixed sections were treated according to the protocol of the Apoptag manufacturer (Oncor, Gaithersburg, Md.) except the pretreatment step with Proteinase K was omitted. After TdT labeling of specimens, positive staining was detected with a peroxidase-labeled antibody against deoxyuridine peroxidase substrate. Sections were counterstained as described above. The apoptotic index was determined by counting the percentage of stained cells under light microscopy within selected 630× fields. A minimum of 1,000 cells was counted for each specimen.
In experiments with AGM-1470 treatment of pregnant mice, transverse sections through embryos contained within the uterus were stained. Microvessels density was determined at the intersite endometrium and PCNA was determined in the decidual stroma. In experiments with AGM-1470 treatment of non-pregnant mice, transverse sections through the endometrium were stained for factor VIII, PCNA or apoptotic cells at the level of the endometrial lumen at its widest diameter. Statistical analysis was performed with ANOVA on ranked data to account for the expected variation of endometrial angiogenesis and glandular proliferation in the control due to different phases of the estrous cycle.

[5] = tested on: non-pregnant cycling mice; test: Cycling mice, chronic treatment: estrous cycle and mating; type: in vivo, mouse
Text: Female mice were housed individually in cages and acclimated for one week. The stage of the estrous cycles was checked by visual inspection of the vagina according to the criteria of Champlin^28 and the examiner was blinded to the treatment group. Determining the stage of the estrous cycle in the mouse by the appearance of the vagina. Animals were monitored daily and graded for color, size of opening, striations and swelling. Based on these observations each individual was assigned to a cycle stage (diestrus, proestrus, estrus, or metestrus).
as §2

[6] = 30 mg/kg every other day for 16 days
[7] = 30 mg/kg every other day for 16 days, n=6
[8] = 30 mg/kg every other day for 16 days, vs control
[9] = 30 mg/kg s.c. every other day for 16 days

CO[C@@H]1[C@H](OC(=O)NC(=O)CCl)CC[C@]2(CO2)[C@H]1[C@@]1(C)O[C@@H]1CC=C(C)C [AGM-1470, O-chloroacetylcarbamoyl fumagillol] was tested, and the “decrease in microvessel density in intersite endometrium vs control” value ([1]; treated on E1, sacrificed E6) was 52%, the “microvessel density in intersite endometrium” value ([1]; treated on E1, sacrificed E6, n=4) was 57±13 vessels/X250 field and the “inhibition of bFGF induced neovascularization” value [2] was 47%. For the same molecule, the “inhibition of VEGF induced neovascularization” value [3] was 62%, the “decrease in microvessel density (Factor VIII) vs control” value [4, 6] was 41% and the “decrease in number of proliferating vessels” value [4, 6] was 71%. For the same molecule, the “decrease in percentage of proliferating glandular epithelial cells (PCNA)” value [4, 6] was 67%, the “decrease in proliferation rate of endometrial stromal cells (PCNA)” value [4, 6] was 68% and the “number of proliferating vessels” value ([4]; 30 mg/kg every other day for 16 days, n=5) was 5±2 vessels/X630 field. The endometrial glands [4, 7] was 3±2 glands/X250 field, the “percentage of proliferating glandular epithelial cells (PCNA)” value [4, 7] was 10%±3 and the “proliferation rate of endometrial stromal cells (PCNA)” value [4, 7] was 5% ±2. For the same molecule, the “apoptotic index (Apo-Tag staining)” value [4, 8] was “not significantly different”, the uterus thickness [4, 8] was “consistently thinner” and the “fewer endometrial glands than control” value [4, 9] was 63%. The “first occurrence of abnormal (closed, red, dry) vaginal morphology” value ([5]; 30 mg/kg s.c. every other day) was 5.6±3.2 days of treatment, the “mice with new vaginal morphology within 10 days of start of treatment” value ([5]; 30 mg/kg s.c. every other day) was 8 of 8 and the “effect on estrous cycle” value [5, 9] was “interruption of the normal estrous cycle”. For the same molecule, the “time to full recovery after drug was discontinued” value ([5]; chronic high dose, sexually mature cycling mice) was 7 weeks and the “successful mating (plugging)” value ([5]; housed with males on last four days of 16 day treatment) was “no visually evident plugging”.
